According to patent publication US11478445B2, “Method for treating acute myeloid leukemia” (Bionomics Limited, priority 2017, dated 2022):
Entries after “also recorded” stand apart in the source; their conditions may differ.

Assays:
AML cell lines = assay: Cell cycle assay (PI staining); assay type: cell-based
Procedure: 2×10^5 cells were harvested into 5 mL tubes and washed 3 times with PBS. Cell pellets were resuspended in 300 μL of cold PBS while vortexing. Next, cells were permeabilised with 700 μL of cold (−20° C.) 100% ethanol added dropwise while vortexing at slow speed. Cell suspensions were incubated on ice for 30 min, centrifuged at 300 g for 10 min and cell pellets resuspended in 100 μL PI solution (0.1% Triton X-100, 100 μg/mL DNAse-free RNAse A-Sigma, and 40 µg/mL PI in PBS). Cell suspensions were incubated at 37° C. for 30 min in the dark. 200 μL of PBS was added to each tube before analysis on an LSRFortessa (BD Biosciences) flow cytometer. Results were analysed with FCS Express 4 Flow Research Edition software (De Novo Software).
For that, cells were plated at 10^6 cells/mL and treated with vehicle (DMSO) alone or a range of doses of EX 1 (0.1 nM, 1 nM, 10 nM and 100 nM) for 6 h, 8 h and 24 h. Cells were harvested for detection of ROS and superoxide anion (O2^·−) levels at 6 h and 24 h, for protein extraction at 8 h and 24 h, and for cell cycle analysis at 24 h.
Therefore, cell cycle analysis was performed by PI staining in the cell lines after 24 h of treatment with a range of doses of EX 1, as described above.

[1] = tested on: GPR56+ LSC containing population of AML samples; assay: LSC detection by flow cytometry (CD34, CD38, GPR56); assay type: cell-based, human
Procedure: 8×10^5 cells (800 μL) were harvested in 5 mL tubes and fixed with 1.6% formaldehyde for 10 min at room temperature. The samples were then washed once with PBS and once with PBS/1% BSA. The cell pellets were resuspended in 100 μL PBS/1% BSA containing 5 μL of anti-CD34-APC (BD Biosciences, clone 8G12, catalogue 340441, lot 6183704), 5 μL of anti-CD38-PECy7 (BD Biosciences, 335790, lot 3353807) and 5 μL of anti-GPR56-PE (Biolegend, 358204, lot B208353) and incubated at room temperature for 1 h in the dark. Finally, cells were washed twice with PBS and resuspended in 200 μL of PBS for analysis on an LSRFortessa (BD Biosciences) flow cytometer. Results were analysed with FCS Express 4 Flow Research Edition software (De Novo Software).
LSC analysis. AML BMMNC samples were first gated for viable cells and then the fraction of GPR56+ cells was determined. According to the report by Pabst and collaborators (Pabst et al, Blood 2016), in CD34^high AML samples the GPR56+ population containing LSCs is present within the CD34+ cells, while in CD34^low AML samples the GPR56+ population containing LSCs is present in both CD34+ and CD34− cell populations. Therefore, the LSC containing subpopulation was estimated from the CD34+/GPR56+ gate for AML235, and from the GPR56+/CD34+ and GPR56+/CD34− gates in AML136 and AML480 (FIG. 6A). A decrease in these subpopulations in response to EX 1 would be consistent with the drug targeting the important LSC-containing compartment. […] On the other hand, OXi4503 treatment, when compared to vehicle control (DMSO), had little effect on AML136 and no effect on AML235 and AML480 (FIG. 6B).

[2] = tested on: primary AML samples L-AML6 and L-AML419; assay: Blast cell colony assay (Methocult); assay type: cell-based, human; conditions: 13 days
Procedure: 1.5 mL of Methocult H4034 (STEMCELL Technologies) was aliquoted in 5 mL tubes (one tube/treatment/sample) and supplemented with 20 ng/mL of hIL-6 (Peprotech, 200-06). EX 1 and OXi4503 dilutions were added to respective tubes to the final concentrations 100 nM and 500 nM. DMSO was used as vehicle control. Samples were added to each tube to the final cell density: 2×10^4 cells/well for L-AML6 and L-AML419, 3×10^3 cells/well for AML136 and AML480. The tubes were shaken to mix drugs and cells with the Methocult and incubated at 37° C. for 10 min to remove bubbles. Samples were then plated in 24-well plates, 4 wells/treatment/sample in the 8 wells at the centre of the plate. The wells at the edges were filled with sterile water to avoid drying. Plates were incubated at 37° C. for 13 days before colonies were counted.
Blast cell colony assay. For colony assays AML MNC were plated in methylcellulose with added cytokines (see Methods) and colonies scored after 13 days. […] L-AML419 also formed a small number of colonies in the DMSO-treated wells, with fewer background cells.

[3] = L-AML419, all doses (100 nM and 500 nM)

Compound	cell cycle distribution (G2/M) (AML cell lines; HL60, KG1, OCI-AML3 and ME1, 24 h)	sub-G0 cell population (AML cell lines; KG1 and HL60, 24 h)	percentage of cells in G2/M and G1 (AML cell lines; MV4;11 and MOLM13, 24 h)	sub-G0 population (apoptosis) (AML cell lines; MV4;11 and MOLM13, 24 h)	cell cycle distribution (sub-G0, G2/M) (AML cell lines; MV4;11 and MOLM13, 24 h, 10 nM)	GPR56+ LSC containing cell population ([1]; AML136, AML235, AML480, 48 h)	concentration at which the LSC population is decreased (as low as) ([1]; AML samples, 48 h, FIG. 6C)	colony formation ([2]; L-AML6, either dose (100 nM and 500 nM))	colony formation [2, 3]	effect on GPR56+ LSC containing population vs DMSO ([1]; AML136, 48 h)	effect on GPR56+ LSC containing population vs DMSO ([1]; AML235 and AML480, 48 h)	colony formation ([2]; L-AML6, 100 nM)	colony formation ([2]; L-AML6, 500 nM)
COc1cc(C(=O)c2c(C)oc3c(O)c(OC)ccc23)cc(OC)c1OC [EX 1, 2-Methyl-7-hydroxy-3-(3,4,5-trimethoxybenzoyl)-6-methoxybenzofuran]	G2/M cell cycle arrest	marked increases in the sub-G0 cell population; also recorded: increase in sub-G0 population starting at treatment with 10 nM	dose-dependent reduction	underwent apoptosis as evidenced by the increase in sub-G0 population	marked apoptosis induction (sub-G0 gate) and G2/M reduction	affected at different rates	20 nM	no colonies or background cells were observed; also recorded: Colony formation is blocked	completely blocked colony and background formation; also recorded: Colony formation is blocked	–	–	–	–
COc1cc(/C=C\c2ccc(OC)c(OP(=O)(O)O)c2OP(=O)(O)O)cc(OC)c1OC [OXi4503, reference compound]	–	–	–	–	–	–	–	–	completely blocked colony and background formation; also recorded: completely inhibits colonies	little effect	no effect	reduced the background cells and also the number of colonies; also recorded: reduces colony formation	completely blocked colony formation; also recorded: completely inhibits colonies
